pIC50: −log10 of the molar value. Values belong to the molecule of their own block, whether it stands above or below them.
Key:
Type in all cases: functional
[1] = Tested in vitro for inhibitory activity of human tumor cell growth against HEC 1A endometrial tumor, by using clonogenic assays.; settings: read-out: ID50 (the source's name)
[2] = tested on: RPMI-8226; assay: In vitro inhibition of human 8226 myeloma tumor cell line growth.; settings: read-out: ID50 (the source's name)
[3] = In vitro inhibition of human UACC-66 ovarian tumor cell line growth.; settings: read-out: ID50 (the source's name)
[4] = tested on: WiDr; assay: Tested in vitro for inhibitory activity of human tumor cell growth against WIDR colon tumor, by using clonogenic assays.; settings: read-out: ID50 (the source's name)
[5] = tested on: L1210; assay: Effect on protein synthesis was determined by incorporation of radioligand into L1210 murine leukemia at a concentration of 10 ug/mL (*: >1 log cell kill); settings: Mus musculus
[6] = tested on: L1210; assay: Effect on DNA synthesis was determined by incorporation of radioligand into L1210 murine leukemia at a concentration of 0.1 ug/mL; settings: Mus musculus
[7] = tested on: RPMI-8226; assay: Effect on RNA synthesis was determined by incorporation of radioligand into 8226 human myeloma cells at a concentration of 1 ug/mL. (*: >50% cell kill)
[8] = tested on: L1210; assay: Effect on DNA synthesis was determined by incorporation of radioligand into L1210 murine leukemia at a concentration of 0.01 ug/mL; settings: Mus musculus
[9] = tested on: RPMI-8226; assay: Effect on protein synthesis was determined by incorporation of radioligand into 8226 human myeloma cells at a concentration of 1 ug/mL. (*: >50% cell kill)
[10] = tested on: RPMI-8226; assay: Effect on protein synthesis was determined by incorporation of radioligand into 8226 human myeloma cells at a concentration of 10 ug/mL (*: >1 log cell kill)
[11] = tested on: L1210; assay: Effect on protein synthesis was determined by incorporation of radioligand into L1210 murine leukemia at a concentration of 0.01 ug/mL; settings: Mus musculus
[12] = tested on: L1210; assay: Effect on protein synthesis was determined by incorporation of radioligand into L1210 murine leukemia at a concentration of 0.1 ug/mL; settings: Mus musculus
[13] = tested on: RPMI-8226; assay: Effect on RNA synthesis was determined by incorporation of radioligand into 8226 human myeloma cells at a concentration of 0.1 ug/mL
[14] = tested on: L1210; assay: Effect on DNA synthesis was determined by incorporation of radioligand into L1210 murine leukemia at a concentration of 10 ug/mL (*: >1 log cell kill); settings: Mus musculus
[15] = tested on: L1210; assay: Effect on RNA synthesis was determined by incorporation of radioligand into L1210 murine leukemia at a concentration of 10 ug/mL (*: >1 log cell kill); settings: Mus musculus
[16] = tested on: RPMI-8226; assay: Effect on protein synthesis was determined by incorporation of radioligand into 8226 human myeloma cells at a concentration of 0.1 ug/mL
[17] = tested on: RPMI-8226; assay: Effect on DNA synthesis was determined by incorporation of radioligand into 8226 human myeloma cells at a concentration of 1 ug/mL. (*: >50% cell kill)
[18] = tested on: RPMI-8226; assay: Effect on DNA synthesis was determined by incorporation of radioligand into 8226 human myeloma cells at a concentration of 10 ug/mL (*: >1 log cell kill)
[19] = tested on: RPMI-8226; assay: Effect on RNA synthesis was determined by incorporation of radioligand into 8226 human myeloma cells at a concentration of 0.01 ug/mL
[20] = tested on: L1210; assay: Effect on RNA synthesis was determined by incorporation of radioligand into L1210 murine leukemia at a concentration of 0.01 ug/mL; settings: Mus musculus
[21] = tested on: RPMI-8226; assay: Effect on DNA synthesis was determined by incorporation of radioligand into 8226 human myeloma cells at a concentration of 0.1 ug/mL
[22] = tested on: RPMI-8226; assay: Effect on protein synthesis was determined by incorporation of radioligand into 8226 human myeloma cells at a concentration of 0.01 ug/mL
[23] = tested on: L1210; assay: Effect on protein synthesis was determined by incorporation of radioligand into L1210 murine leukemia at a concentration of 1 ug/mL. (*: >50% cell kill); settings: Mus musculus
[24] = tested on: RPMI-8226; assay: Effect on RNA synthesis was determined by incorporation of radioligand into 8226 human myeloma cells at a concentration of 10 ug/mL (*: >1 log cell kill)
[25] = tested on: L1210; assay: Effect on RNA synthesis was determined by incorporation of radioligand into L1210 murine leukemia at a concentration of 0.1 ug/mL; settings: Mus musculus
[26] = tested on: RPMI-8226; assay: Effect on DNA synthesis was determined by incorporation of radioligand into 8226 human myeloma cells at a concentration of 0.01 ug/mL
[27] = tested on: L1210; assay: Effect on DNA synthesis was determined by incorporation of radioligand into L1210 murine leukemia at a concentration of 1 ug/mL. (*: >50% cell kill); settings: Mus musculus
[28] = tested on: L1210; assay: Effect on RNA synthesis was determined by incorporation of radioligand into L1210 murine leukemia at a concentration of 1 ug/mL. (*: >50% cell kill); settings: Mus musculus
[29] = tested on: P388; assay: Antileukemic activity against P-388 in mice at a dose of 125 mg/kg administered intraperitoneally after 3 day treatment; settings: Mus musculus, P388, ip, 72 h, route intraperitoneal
[30] = tested on: P388; assay: Antileukemic activity against P-388 in mice at a dose of 30 mg/kg administered intraperitoneally after 3 day treatment(Trial 2); settings: Mus musculus, P388, ip, 72 h, route intraperitoneal
[31] = tested on: P388; assay: Antileukemic activity against P-388/ADR (P-388 cells resistant to adriamycin) in mice at a dose of 30 mg/kg administered intraperitoneally after 3 day treatment(Trial 2); settings: Mus musculus, P388, ip, 72 h, route intraperitoneal
[32] = tested on: P388; assay: Antileukemic activity against P-388/ADR (P-388 cells resistant to adriamycin) in mice at a dose of 44 mg/kg administered intraperitoneally after 3 day treatment(Trial 2); settings: Mus musculus, P388, ip, 72 h, route intraperitoneal
[33] = tested on: P388; assay: Antileukemic activity against P-388 in mice at a dose of 100 mg/kg administered intraperitoneally after 3 day treatment(Trial 2); settings: Mus musculus, P388, ip, 72 h, route intraperitoneal
[34] = tested on: P388; assay: Antileukemic activity against P-388 in mice at a dose of 67 mg/kg administered intraperitoneally after 3 day treatment; settings: Mus musculus, P388, ip, 72 h, route intraperitoneal
[35] = tested on: P388; assay: Antileukemic activity against P-388/ADR (P-388 cells resistant to adriamycin) in mice at a dose of 100 mg/kg administered intraperitoneally after 3 day treatment(Trial 2); settings: Mus musculus, P388, ip, 72 h, route intraperitoneal
[36] = tested on: P388; assay: Antileukemic activity against P-388 in mice at a dose of 44 mg/kg administered intraperitoneally after 3 day treatment; settings: Mus musculus, P388, ip, 72 h, route intraperitoneal
[37] = tested on: P388; assay: Antileukemic activity against P-388 in mice at a dose of 44 mg/kg administered intraperitoneally after 3 day treatment(Trial 2); settings: Mus musculus, P388, ip, 72 h, route intraperitoneal
[38] = tested on: P388; assay: Antileukemic activity against P-388 in mice at a dose of 67 mg/kg administered intraperitoneally after 3 day treatment(Trial 2); settings: Mus musculus, P388, ip, 72 h, route intraperitoneal
[39] = tested on: P388; assay: Antileukemic activity against P-388/ADR (P-388 cells resistant to adriamycin) n mice at a dose of 67 mg/kg administered intraperitoneally after 3 day treatment(Trial 2); settings: Mus musculus, P388, ip, 72 h, route intraperitoneal
[40] = tested on: P388; assay: Antileukemic activity against P-388 in mice at a dose of 100 mg/kg administered intraperitoneally after 3 day treatment; settings: Mus musculus, P388, ip, 72 h, route intraperitoneal

Structure (SMILES): CN(C)CCN(C)Cc1c2ccccc2c(CN(C)CCN(C)C)c2ccccc12
pIC50 [3]: 6.15 | pIC50 [4]: 6.85 | pIC50 [2]: 6.54

Structure (SMILES): C(=N\NC1=NCCN1)/c1c2ccccc2c(/C=N/NC2=NCCN2)c2ccccc12 [BISANTRENE]
inhibition at 10 µg/mL [5]: 89% | pIC50 [1]: 6.42 | inhibition at 0.1 µg/mL [6]: 9.3% | pIC50 [3]: 5.62 | inhibition at 1 µg/mL [7]: 91.6% | inhibition at 0.01 µg/mL [8]: 1.8% | inhibition at 1 µg/mL [9]: 41.9% | inhibition at 10 µg/mL [10]: 63.5% | inhibition at 0.01 µg/mL [11]: 0% | inhibition at 0.1 µg/mL [12]: 5.6% | inhibition at 0.1 µg/mL [13]: 21% | inhibition at 10 µg/mL [14]: 66.8% | pIC50 [4]: 6.36 | inhibition at 10 µg/mL [15]: 96.1% | inhibition at 0.1 µg/mL [16]: 20.2% | pIC50 [2]: 6.64 | inhibition at 1 µg/mL [17]: 79.9% | inhibition at 10 µg/mL [18]: 97.7% | inhibition at 0.01 µg/mL [19]: 0% | inhibition at 0.01 µg/mL [20]: 0% | inhibition at 0.1 µg/mL [21]: 33.3% | inhibition at 0.01 µg/mL [22]: 0% | inhibition at 1 µg/mL [23]: 48.5% | inhibition at 10 µg/mL [24]: 92.9% | inhibition at 0.1 µg/mL [25]: 24.1% | inhibition at 0.01 µg/mL [26]: 0% | inhibition at 1 µg/mL [27]: 43.6% | inhibition at 1 µg/mL [28]: 21.7%

Structure (SMILES): NCCNCc1c2ccccc2c(CNCCN)c2ccccc12
pIC50 [3]: 5.38 | pIC50 [4]: 6.38 | pIC50 [2]: 3.16

Structure (SMILES): CN1CCN(Cc2c3ccccc3c(CN3CCN(C)CC3)c3ccccc23)CC1
pIC50 [4]: 4.98 | pIC50 [2]: 7.00

Structure (SMILES): c1ccc2c(CNCCN3CCOCC3)c3ccccc3c(CNCCN3CCOCC3)c2c1
pIC50 [3]: 7.52 | ILS at 125 mg/kg [29]: -81% | ILS at 30 mg/kg [30]: 4% | ILS at 30 mg/kg [31]: 5% | ILS at 44 mg/kg [32]: 15% | ILS at 100 mg/kg [33]: 9% | ILS at 67 mg/kg [34]: 33% | pIC50 [4]: 7.70 | ILS at 100 mg/kg [35]: 40% | pIC50 [2]: 7.70 | ILS at 44 mg/kg [36]: 28% | ILS at 44 mg/kg [37]: -5% | ILS at 67 mg/kg [38]: 9% | ILS at 67 mg/kg [39]: 15% | ILS at 100 mg/kg [40]: -34%

Structure (SMILES): CCN1CCCC(NCc2c3ccccc3c(CNC3CCCN(CC)C3)c3ccccc23)C1 (configuration not stated)
pIC50 [4]: 5.25 | pIC50 [2]: 7.40

Structure (SMILES): NCCN(CCO)Cc1c2ccccc2c(CN(CCN)CCO)c2ccccc12
pIC50 [3]: 5.24 | pIC50 [4]: 5.30

Structure (SMILES): OCCCNCc1c2ccccc2c(CNCCCO)c2ccccc12
pIC50 [3]: 4.74

Structure (SMILES): C(=N\Nc1nccs1)/c1c2ccccc2c(/C=N/Nc2nccs2)c2ccccc12
pIC50 [1]: 3.70 | pIC50 [3]: 5.06 | pIC50 [4]: 5.23 | pIC50 [2]: 5.20

Structure (SMILES): c1ccc2c(CC3=NCCN3)c3ccccc3c(CC3=NCCN3)c2c1
pIC50 [1]: 5.25 | pIC50 [3]: 5.36

Structure (SMILES): CNCCN(C)Cc1c2ccccc2c(CN(C)CCNC)c2ccccc12
pIC50 [3]: 5.47 | pIC50 [4]: 5.71 | pIC50 [2]: 5.45

Further lines, with some results ahead:

pIC50 [2]: 4.96
Structure (SMILES): CN(C)CCCNCc1c2ccccc2c(CNCCCN(C)C)c2ccccc12
pIC50 [1]: 4.25

pIC50 [2]: 4.56
Structure (SMILES): OCCNCc1c2ccccc2c(CNCCO)c2ccccc12
pIC50 [3]: 4.13

pIC50 [2]: 6.64
Structure (SMILES): OCCOCCNCc1c2ccccc2c(CNCCOCCO)c2ccccc12
pIC50 [3]: 5.18 | pIC50 [4]: 5.54

pIC50 [2]: 5.12
Structure (SMILES): CC(C)N(CCNCc1c2ccccc2c(CNCCN(C(C)C)C(C)C)c2ccccc12)C(C)C
pIC50 [4]: 4.81

pIC50 [2]: 5.33
Structure (SMILES): OCCCCCNCc1c2ccccc2c(CNCCCCCO)c2ccccc12
pIC50 [3]: 4.61 | pIC50 [4]: 4.87

Source: ChEMBL document CHEMBL1123796, “New antitumor agents containing the anthracene nucleus” (1987)
